{"source": "patent US20230124862A1", "about": "“BISMUTH THIOL COMPOUNDS AND COMPOSITIONS AND METHODS OF TREATING MICROBIAL CO-INFECTIONS” (Microbion Corporation, priority 2020, published 2023)", "key": {"Haemophilus influenzae [1]": {"system": "Haemophilus influenzae", "details": "H. influenzae MMX 1224 (ATCC 49247); in µg/mL; cited from earlier work"}, "Haemophilus influenzae [2]": {"system": "Haemophilus influenzae", "assay": "Broth microdilution MIC, Haemophilus influenzae clinical isolates", "format": "cell-based"}, "Aspergillus spp. [3]": {"system": "Aspergillus spp.", "details": "cited from earlier work"}, "Candida krusei [4]": {"system": "Candida krusei", "details": "C. krusei ATCC 6258, CLSI established QC range, cited from earlier work"}, "E. coli ATCC 25922": {"system": "E. coli ATCC 25922", "assay": "MIC control strain", "details": "QC organism, Example 13"}, "Candida spp. [5]": {"system": "Candida spp.", "details": "C. parapsilosis MMX 2323 (ATCC 22019), cited from earlier work"}, "[6]": {"system": "C. parapsilosis ATCC 22019", "assay": "Antifungal broth microdilution (Example 13), QC organism", "format": "cell-based, Candida parapsilosis", "details": "comparators, single value"}, "Candida spp. [7]": {"system": "Candida spp.", "assay": "Broth microdilution MIC (Example 11)", "format": "cell-based, C. parapsilosis, C. albicans, C. glabrata, C. tropicalis"}, "[8]": {"system": "C. parapsilosis ATCC 22019", "details": "C. parapsilosis ATCC 22019, CLSI established QC range, cited from earlier work"}, "Candida krusei [9]": {"system": "Candida krusei", "assay": "Antifungal broth microdilution (Example 13)", "format": "cell-based", "details": "C. krusei ATCC 6258, comparators, single value"}, "S. aureus ATCC 29213": {"system": "S. aureus ATCC 29213", "assay": "MIC control strain", "details": "QC organism, Example 13"}, "Aspergillus spp. [10]": {"system": "Aspergillus spp.", "assay": "Antifungal broth microdilution (Example 13)", "format": "cell-based, A. niger, A. terreus, A. fumigatus, A. flavus"}}, "note": "Like-named read-outs stand apart in the source and are kept apart here."}
{"smiles": "CC1(C)S[C@@H]2[C@H](NC(=O)[C@H](N)c3ccccc3)C(=O)N2[C@H]1C(=O)O", "note": "[AMP]", "values": [{"measurement": "CLSI Quality Control Range (MIC)", "setting": "Haemophilus influenzae [1]", "value": "2-8"}, {"measurement": "MIC", "setting": "Haemophilus influenzae [2]; H. influenzae MMX 0797, BLNAR", "value": 4, "unit": "µg/mL"}, {"measurement": "MIC", "setting": "Haemophilus influenzae [2]; H. influenzae MMX 1224 (ATCC 49247)", "value": 2, "unit": "µg/mL"}, {"measurement": "MIC", "setting": "Haemophilus influenzae [2]; H. influenzae MMX 1302", "value": 0.25, "unit": "µg/mL"}, {"measurement": "MIC", "setting": "Haemophilus influenzae [2]; H. influenzae MMX 1304", "value": 0.25, "unit": "µg/mL"}, {"measurement": "MIC", "setting": "Haemophilus influenzae [2]; H. influenzae MMX 1740", "value": 4, "unit": "µg/mL"}, {"measurement": "MIC", "setting": "Haemophilus influenzae [2]; H. influenzae MMX 1741", "value": 4, "unit": "µg/mL"}, {"measurement": "MIC", "setting": "Haemophilus influenzae [2]; H. influenzae MMX 2795, BLNAR", "value": 4, "unit": "µg/mL"}, {"measurement": "MIC", "setting": "Haemophilus influenzae [2]; H. influenzae MMX 2796, BLNAR", "value": 2, "unit": "µg/mL"}, {"measurement": "MIC", "setting": "Haemophilus influenzae [2]; H. influenzae MMX 2798, BLNAR", "value": 4, "unit": "µg/mL"}, {"measurement": "MIC", "setting": "Haemophilus influenzae [2]; H. influenzae MMX 2799, BLNAR", "value": 4, "unit": "µg/mL"}, {"measurement": "MIC", "setting": "Haemophilus influenzae [2]; H. influenzae MMX 5458", "value": 0.12, "unit": "µg/mL"}, {"measurement": "MIC", "setting": "Haemophilus influenzae [2]; H. influenzae MMX 5461", "value": 0.5, "unit": "µg/mL"}, {"measurement": "MIC", "setting": "Haemophilus influenzae [2]; H. influenzae MMX 5469", "value": 4, "unit": "µg/mL"}, {"measurement": "MIC", "setting": "Haemophilus influenzae [2]; H. influenzae MMX 5494", "value": 0.12, "unit": "µg/mL"}, {"measurement": "MIC", "setting": "Haemophilus influenzae [2]; H. influenzae MMX 5495", "value": 0.25, "unit": "µg/mL"}, {"measurement": "MIC", "setting": "Haemophilus influenzae [2]; H. influenzae MMX 5499", "value": 0.25, "unit": "µg/mL"}]}
{"smiles": "C[C@@H]1[C@H](O)[C@@H](C)/C=C/C=C/C=C/C=C/C=C/C=C/C=C/[C@H](O[C@@H]2O[C@H](C)[C@@H](O)[C@H](N)[C@@H]2O)C[C@@H]2O[C@](O)(C[C@@H](O)C[C@@H](O)[C@H](O)CC[C@@H](O)C[C@@H](O)CC(=O)O[C@H]1C)C[C@H](O)[C@H]2C(=O)O", "note": "[Amphotericin B]", "values": [{"measurement": "QC Range 48 hr", "setting": "Aspergillus spp. [3]; A. flavus ATCC 204304, CLSI established QC range", "value": "0.5-4"}, {"measurement": "QC Range 48 hr", "setting": "Aspergillus spp. [3]; A. fumigatus ATCC MYA-3626, CLSI established QC range", "value": "0.5-4"}, {"measurement": "QC Range 24 hr", "setting": "Candida krusei [4]; 24 hr", "value": "0.5-2"}, {"measurement": "QC Range 48 hr", "setting": "Candida krusei [4]; 48 hr", "value": "1-4"}, {"measurement": "MIC 24 hr", "setting": "E. coli ATCC 25922", "value": ">64"}, {"measurement": "CLSI QC range of MIC", "setting": "Candida spp. [5]; 24 hr", "value": "0.25 to 2", "unit": "µg/mL"}, {"measurement": "CLSI QC range of MIC", "setting": "Candida spp. [5]; 48 hr", "value": "0.5 to 4", "unit": "µg/mL"}, {"measurement": "MIC 24 hr", "setting": "[6]; 24 hr", "value": 0.5, "unit": "µg/mL"}, {"measurement": "MIC 48 hr", "setting": "[6]; 48 hr", "value": 0.5, "unit": "µg/mL"}, {"measurement": "MIC", "setting": "Candida spp. [7]; C. albicans MMX 7039, Sensitive, incubation 24 hr", "value": "0.5, 0.5 μg/mL"}, {"measurement": "MIC", "setting": "Candida spp. [7]; C. albicans MMX 7039, Sensitive, incubation 48 hr", "value": "0.5, 0.5 μg/mL"}, {"measurement": "MIC", "setting": "Candida spp. [7]; C. albicans MMX 7055, Sensitive, incubation 24 hr", "value": 0.25, "unit": "µg/mL"}, {"measurement": "MIC", "setting": "Candida spp. [7]; C. albicans MMX 7055, Sensitive, incubation 48 hr", "value": 0.5, "unit": "µg/mL"}, {"measurement": "MIC", "setting": "Candida spp. [7]; C. glabrata MMX 7318, FLU^R, incubation 24 hr", "value": 0.5, "unit": "µg/mL"}, {"measurement": "MIC", "setting": "Candida spp. [7]; C. glabrata MMX 7318, FLU^R, incubation 48 hr", "value": 1, "unit": "µg/mL"}, {"measurement": "MIC", "setting": "Candida spp. [7]; C. glabrata miX 7086, FLU^R, incubation 24 hr", "value": 0.5, "unit": "µg/mL"}, {"measurement": "MIC", "setting": "Candida spp. [7]; C. glabrata miX 7086, FLU^R, incubation 48 hr", "value": 1, "unit": "µg/mL"}, {"measurement": "MIC", "setting": "Candida spp. [7]; C. parapsilosis MMX 2323 (ATCC 22019), QC, incubation 24 hr", "value": 0.5, "unit": "µg/mL"}, {"measurement": "MIC", "setting": "Candida spp. [7]; C. parapsilosis MMX 2323 (ATCC 22019), QC, incubation 48 hr", "value": 1, "unit": "µg/mL"}, {"measurement": "MIC", "setting": "Candida spp. [7]; C. parapsilosis MMX 7370, FLU^R, incubation 24 hr", "value": 0.5, "unit": "µg/mL"}, {"measurement": "MIC", "setting": "Candida spp. [7]; C. parapsilosis MMX 7370, FLU^R, incubation 48 hr", "value": 1, "unit": "µg/mL"}, {"measurement": "MIC", "setting": "Candida spp. [7]; C. parapsilosis MMX 7555, FLU^R, incubation 24 hr", "value": "0.5, 0.5 μg/mL"}, {"measurement": "MIC", "setting": "Candida spp. [7]; C. parapsilosis MMX 7555, FLU^R, incubation 48 hr", "value": "0.5, 0.5 μg/mL"}, {"measurement": "MIC", "setting": "Candida spp. [7]; C. tropicalis MMX 7247, FLU^R, incubation 24 hr", "value": 0.5, "unit": "µg/mL"}, {"measurement": "MIC", "setting": "Candida spp. [7]; C. tropicalis MMX 7247, FLU^R, incubation 48 hr", "value": 1, "unit": "µg/mL"}, {"measurement": "MIC", "setting": "Candida spp. [7]; C. tropicalis MMX 7248, FLU^R, incubation 24 hr", "value": 0.5, "unit": "µg/mL"}, {"measurement": "MIC", "setting": "Candida spp. [7]; C. tropicalis MMX 7248, FLU^R, incubation 48 hr", "value": 1, "unit": "µg/mL"}, {"measurement": "MIC", "setting": "Candida spp. [7]; C. tropicalis MMX 7360, FLU^R, incubation 24 hr", "value": "0.5, 0.5 μg/mL"}, {"measurement": "MIC", "setting": "Candida spp. [7]; C. tropicalis MMX 7360, FLU^R, incubation 48 hr", "value": "0.5, 0.5 μg/mL"}, {"measurement": "QC Range 24 hr", "setting": "[8]; 24 hr", "value": "0.25-2"}, {"measurement": "QC Range 48 hr", "setting": "[8]; 48 hr", "value": "0.5-4"}, {"measurement": "MIC 24 hr", "setting": "Candida krusei [9]; 24 hr", "value": 0.5, "unit": "µg/mL"}, {"measurement": "MIC 48 hr", "setting": "Candida krusei [9]; 48 hr", "value": 0.5, "unit": "µg/mL"}, {"measurement": "MIC 24 hr", "setting": "S. aureus ATCC 29213", "value": ">64"}, {"measurement": "MIC 24 hr", "setting": "Aspergillus spp. [10]; A. flavus ATCC 204304", "value": 0.5, "unit": "µg/mL"}, {"measurement": "MIC 48 hr", "setting": "Aspergillus spp. [10]; A. flavus ATCC 204304", "value": 1, "unit": "µg/mL"}, {"measurement": "MIC 24 hr", "setting": "Aspergillus spp. [10]; A. fumigatus ATCC MYA-3626", "value": 0.5, "unit": "µg/mL"}, {"measurement": "MIC 48 hr", "setting": "Aspergillus spp. [10]; A. fumigatus ATCC MYA-3626", "value": 1, "unit": "µg/mL"}]}
